From paper PMC10487436, “Towards Anticancer and Antibacterial Agents: Design and Synthesis of 1,2,3-Triazol-quinobenzothiazine Derivatives” (International Journal of Molecular Sciences, 2023)

Columns and labels:
[1] = tested on: Enterococcus faecalis ATCC 29213; assay: MIC, microtitration broth method, EF; assay type: cell-based; conditions: ATCC29213, 24 h at 37 °C
[2] = tested on: SNB-19 (human glioblastoma); assay: WST-1 proliferation assay, SNB-19; assay type: cell-based; conditions: Homo sapiens, SNB-19, 72 h exposure
Method: (§1) Compounds were evaluated for their antiproliferative activity using three cultured cell lines: A549 (human lung carcinoma, ATCC, Manassas, VA, USA), SNB-19 (human glioblastoma, DSMZ, German Collection of Microorganisms and Cell Cultures), T-47D (human breast cancer, ATCC, Manassas, VA, USA), and NHDF (normal human dermal fibroblasts, ATCC, Manassas, VA, USA). The cultured cells were kept at 37 °C and 5% CO2. The cells were seeded (1 × 10^4 cells/well/100 μL DMEM supplemented with 10% FCS, streptomycin, and penicillin) using 96-well plates (corning). Cells were counted in a hemocytometer (Burker chamber) using a phase contrast Olympus IX50 microscope equipped with a Sony SSC-DC58 AP camera and an Olympus DP10 digital camera.
(§2) The antiproliferative effect of the compounds exerted on cancer and normal cells was determined using the Cell Proliferation Reagent WST-1 assay (Roche Molecular Biochemicals, Mannheim, Germany). This assay is based on a colorimetric method using the enzymatic ability of viable cells to cause the bright, red-colored stable tetrazolium monosodium salt [2-(4-iodophenyl)-3-(4-nitrophenyl)-5-(2,4-disulfophenyl)–2H-tetra-zolium] to transform into the dark, red-colored soluble formazan. […] An increase in the amount of formazan dye formed correlated with the number of metabolically active cells in the culture. The formazan dye produced by metabolically active cells was quantified by absorbance readings at appropriate wavelengths. The examined cells were exposed to the tested compounds (1 mM DMSO stock) for 72 h at various concentrations (0.1–100 μM). The control was performed in order to eliminate the DMSO effect at the concentration used. Cell cultures were incubated with WST-1 (10 μL) for 1 h. The absorbance of the samples was measured against a background control at 450 nm using a microplate reader with a reference wavelength at 600 nm. The obtained results are expressed as the means of at least two independent experiments performed in triplicate. The antiproliferative activity of the tested compounds was compared to that of cisplatinum. The values of IC50 (a concentration of a compound that is required for 50% inhibition) were calculated from the dose-response relationship with respect to control. The results were reported as the mean (±std) of three separate experiments.

[3] = tested on: Staphylococcus aureus ATCC 29213; assay: MIC, microtitration broth method, SA; assay type: cell-based; conditions: ATCC29213, 24 h at 37 °C
Method: (§3) In vitro antibacterial activity of the synthesized compounds was evaluated against representatives of multidrug-resistant bacteria, three clinical isolates of methicillin-resistant S. aureus: clinical isolates of animal origin, MRSA 63718 (Department of Infectious Diseases and Microbiology, Faculty of Veterinary Medicine, University of Veterinary Sciences Brno, Czech Republic), carrying the mecA gene; and MRSA SA 630 and MRSA SA 3202 [52] (National Institute of Public Health, Prague, Czech Republic), both of human origin. […] Vancomycin- and methicillin-susceptible S. aureus ATCC 29213 and vancomycin-susceptible Enterococcus faecalis ATCC 29212, obtained from the American Type Culture Collection, were used as the reference and quality control strains. Three vanA gene-carrying vancomycin-resistant isolates of E. faecalis (VRE 342B, VRE 368, VRE 725B) were provided by Oravcova et al..
(§4) The minimum inhibitory concentrations (MICs) were evaluated by the microtitration broth method according to the CLSI, with some modifications. The compounds were dissolved in DMSO (Sigma, St. Louis, MO, USA) to obtain a concentration of […] and diluted in a microtitration plate in an appropriate medium, i.e., Cation Adjusted Mueller–Hinton Broth (CaMH, Oxoid, Basingstoke, UK) for staphylococci, and Brain Heart Infusion Broth (BHI, Oxoid) for enterococci, to reach the final concentration of 256–0.125 µg/mL. Microtiter plates were inoculated with test micro-organisms so that the final concentration of bacterial cells was 10^5. […] A drug-free control and a sterility control were included. The plates were incubated for 24 h at 37 °C for staphylococci and enterococci. […] The experiments were repeated three times.

[4] = tested on: human cancer cell lines (A549, SNB-19, and T-47D); assay: WST-1 proliferation assay, cancer cell line panel; assay type: cell-based; conditions: SNB-19, A549, T47D, read-out: IC50 range over the tested cancer cell lines
Method: as §1
The antiproliferative effect of the compounds exerted on cancer and normal cells was determined using the Cell Proliferation Reagent WST-1 assay (Roche Molecular Biochemicals, Mannheim, Germany). […] The formazan dye produced by metabolically active cells was quantified by absorbance readings at appropriate wavelengths. […] The absorbance of the samples was measured against a background control at 450 nm using a microplate reader with a reference wavelength at 600 nm. The obtained results are expressed as the means of at least two independent experiments performed in triplicate. […]

[5] = tested on: T-47D (human breast cancer); assay: WST-1 proliferation assay, T47D; assay type: cell-based; conditions: Homo sapiens, T47D, 72 h exposure
Method: as §1, §2

[6] = tested on: methicillin-resistant S. aureus 63718; assay: MBC, agar aliquot subculture method, MRSA3; assay type: cell-based; conditions: Staphylococcus aureus
Method: (§5) For the above-mentioned strains/isolates, the agar aliquot subculture method was used as a test for bactericidal agents. After the MIC value determination, the inoculum was transferred to CaMH (Oxoid) for staphylococci, BHI (Oxoid) for enterococci, and Middlebrook 7H9 (Difco) for mycobacteria medium using a multipoint inoculator. As indicated above, the plates were incubated on a thermostat at 37 °C for the appropriate time for each micro-organism. The lowest concentration of test compound at which ≤5 colonies were obtained was then evaluated as MBC, corresponding to a 99.9% decrease in CFU relative to the original inoculum.

[7] = tested on: methicillin-resistant S. aureus SA 630; assay: MIC, microtitration broth method, MRSA2; assay type: cell-based; conditions: Staphylococcus aureus; 24 h at 37 °C
Method: as §3, §4

[8] = tested on: vancomycin-resistant E. faecalis VRE 725B; assay: MIC, microtitration broth method, VRE3; assay type: cell-based; conditions: Enterococcus faecalis, 24 h at 37 °C
Method: as §3, §4

[9] = tested on: methicillin-resistant S. aureus SA 630; assay: MBC, agar aliquot subculture method, MRSA2; assay type: cell-based; conditions: Staphylococcus aureus
Method: as §5

[10] = tested on: Mycobacterium smegmatis ATCC 700084; assay: MIC, broth dilution micro-method, MS; assay type: cell-based; conditions: Mycolicibacterium smegmatis, ATCC700084, 72 h; 3 days at 37 °C
[11] = tested on: Mycobacterium marinum CAMP 5644; assay: MBC, agar aliquot subculture method, MM; assay type: cell-based; conditions: CAMP5644
Method: as §5

[12] = tested on: Staphylococcus aureus ATCC 29213; assay: MBC, agar aliquot subculture method, SA; assay type: cell-based; conditions: ATCC29213
Method: as §5

[13] = tested on: NHDF (normal human dermal fibroblasts); assay: WST-1 proliferation assay, NHDF; assay type: cell-based; conditions: Homo sapiens, NHDF, normal cells, 72 h exposure
Method: as §1, §2

[14] = tested on: A549 (human lung carcinoma); assay: WST-1 proliferation assay, A549; assay type: cell-based; conditions: Homo sapiens, A549, 72 h exposure
Method: as §1, §2

[15] = tested on: vancomycin-resistant E. faecalis VRE 342B; assay: MIC, microtitration broth method, VRE1; assay type: cell-based; conditions: Enterococcus faecalis, 24 h at 37 °C
Method: as §3, §4

[16] = tested on: vancomycin-resistant E. faecalis VRE 368; assay: MIC, microtitration broth method, VRE2; assay type: cell-based; conditions: Enterococcus faecalis, 24 h at 37 °C
Method: as §3, §4

[17] = tested on: methicillin-resistant S. aureus SA 3202; assay: MIC, microtitration broth method, MRSA1; assay type: cell-based; conditions: Staphylococcus aureus; 24 h at 37 °C
Method: as §3, §4

[18] = tested on: Mycobacterium marinum CAMP 5644; assay: MIC, broth dilution micro-method, MM; assay type: cell-based; conditions: CAMP5644, 504 h, 21 days at 28 °C
[19] = tested on: methicillin-resistant S. aureus 63718; assay: MIC, microtitration broth method, MRSA3; assay type: cell-based; conditions: Staphylococcus aureus; 24 h at 37 °C
Method: as §3, §4

[20] = tested on: Mycobacterium smegmatis ATCC 700084; assay: MBC, agar aliquot subculture method, MS; assay type: cell-based; conditions: Mycolicibacterium smegmatis, ATCC700084
Method: as §5

[21] = tested on: methicillin-resistant S. aureus SA 3202; assay: MBC, agar aliquot subculture method, MRSA1; assay type: cell-based; conditions: Staphylococcus aureus
Method: as §5

[22] = tested on: Mycobacterium smegmatis ATCC 700084; conditions: 3 days; for Conc.: lowest multiple of MBC with at least 70% inhibition of respiratory activity / Conc.: lowest multiple of MIC with at least 70% inhibition of respiratory activity: MTT; for M. smegmatis Respiration Inhibition: at the concentration (lowest multiple of MIC with at least 70% inhibition)

Structure (SMILES) | MIC [1] [µM] | IC50 [2] [µM] | MIC [3] [µM] | IC50 [5] [µM] | MBC [6] [µM] | MIC [7] [µM] | MIC [8] [µM] | MBC [9] [µM] | MIC [10] [µM] | MBC [11] [µM] | MBC [12] [µM] | IC50 [13] [µM] | IC50 [14] [µM] | MIC [15] [µM] | MIC [16] [µM] | MIC [17] [µM] | MIC [18] [µM] | MIC [19] [µM] | MBC [20] [µM] | MBC [21] [µM] | further results
C=CCn1cc(COc2ccc3c(c2)Sc2c[n+](C)c4ccccc4c2N3)nn1 [2a, 5-Methyl-9-(1-allyl-1H-1,2,3-triazol-4-yl)methoxy-12H-quino [3,4-b][1,4]benzothiazinium chloride] | 262 | 0.23 ± 0.06 | 131 | 2.1 ± 0.5 | 131 | 262 | 262 | 262 | 32.7 | 65.5 | 131 | 47.8 ± 3.5 | 0.45 ± 0.08 | 524 | 262 | 262 | 65.5 | 131 | 32.7 |  | IC50 [4]: 0.23 to 2.1 µM
C[n+]1cc2c(c3ccccc31)Nc1cc(OCc3cn(Cc4ccccc4)nn3)ccc1S2 [2e, 5-Methyl-10-(1-benzyl-1H-1,2,3-triazol-4-yl)methoxy-12H-quino [3,4-b][1,4]benzothiazinium chloride] | 524 | 3.4 ± 0.3 | 32.8 | 12.5 ± 0.8 | 16.3 | 65.5 | 524 | 65.5 | 32.7 | 32.7 | 65.5 | 56.6 ± 4.2 | 8.4 ± 0.6 | 524 | 524 | 65.5 | 32.7 | 16.3 | 32.7 | 65.5 | 
C[n+]1cc2c(c3ccccc31)Nc1cc(OCc3cn(Cc4ccc([N+](=O)[O-])cc4)nn3)ccc1S2 [2h, 5-Methyl-10-[1-(4-nitrobenzyl)-1H-1,2,3-triazol-4-yl]methoxy-12H-quino [3,4-b][1,4]benzothiazinium chloride] | > 524 | 9.3 ± 0.5 | 131 | 6.3 ± 0.3 | 131 | 262 | > 524 | 262 | 16.3 | 32.7 | 131 | > 100 | 14.6 ± 0.6 | > 524 | > 524 | 262 | 32.7 | 131 | 16.3 | 262 | Conc.: lowest multiple of MBC with at least 70% inhibition of respiratory activity [22]: 1× MIC (1× MBC); Conc.: lowest multiple of MIC with at least 70% inhibition of respiratory activity [22]: 1× MIC (1× MBC); viability of M. smegmatis at MIC value ([22]; Mycobacterium smegmatis): less than 70%; M. smegmatis Respiration Inhibition [22]: 81.4%
C[n+]1cc2c(c3ccccc31)Nc1ccc(OCc3cn(CSc4ccccc4)nn3)cc1S2 [2j, 5-Methyl-9-(1-(phenylthio)methyl-1H-1,2,3-triazol-4-yl)methoxy-12H-quino [3,4-b][1,4]benzothiazinium chloride] | 524 | 8.8 ± 0.4 | 65.5 | 19.3 ± 1.2 | 32.7 | 65.5 | 524 | 65.5 | 16.3 | 16.3 | 65.5 | 28.7 ± 1.2 | 10.5 ± 0.7 | 524 | 524 | 65.5 | 16.3 | 32.7 | 16.3 | 65.5 | Conc.: lowest multiple of MBC with at least 70% inhibition of respiratory activity [22]: 2× MIC (2× MBC); Conc.: lowest multiple of MIC with at least 70% inhibition of respiratory activity [22]: 2× MIC (2× MBC); M. smegmatis Respiration Inhibition [22]: 87.6%
C[n+]1cc2c(c3ccccc31)Nc1cc(OCc3cn(CSc4ccccc4)nn3)ccc1S2 [2k, 5-Methyl-10-(1-(phenylthio)methyl-1H-1,2,3-triazol-4-yl)methoxy-12H-quino [3,4-b][1,4] benzothiazinium chloride] | 524 | 6.1 ± 0.3 | 65.5 | 10.6 ± 0.9 | 16.3 | 65.5 | 524 | 65.5 | 32.7 | 32.7 | 65.5 | > 100 | 16.4 ± 0.9 | > 524 | 524 | 65.5 | 32.7 | 16.3 | 32.7 | 65.5 | 
C[n+]1cc2c(c3ccccc31)Nc1c(OCc3cn(CSc4ccccc4)nn3)cccc1S2 [2l, 5-Methyl-11-(1-(phenylthio)methyl-1H-1,2,3-triazol-4-yl)methoxy-12H-quino [3,4-b][1,4] benzothiazinium chloride] | 524 | 9.6 ± 0.8 | 65.5 | 4.3 ± 0.2 | 32.7 | 65.5 | 524 | 65.5 | 16.3 | 16.3 | 65.5 | > 100 | 14.1 ± 0.6 | 524 | 524 | 65.5 | 16.3 | 32.7 | 16.3 | 131 | Conc.: lowest multiple of MBC with at least 70% inhibition of respiratory activity [22]: 2× MIC (2× MBC); Conc.: lowest multiple of MIC with at least 70% inhibition of respiratory activity [22]: 2× MIC (2× MBC); M. smegmatis Respiration Inhibition [22]: 87.3%
